Here are results for 26 molecules from patent US9708267B2, “Activators of human pyruvate kinase” (The United States of America, as represented by the …, priority 2010, dated 2017).

One may read the AC50 as the midpoint of the concentration-response curve, whichever way the signal moves.

For this assay, the target named is hPK, M2 (Homo sapiens, UniProt P14618). Kind of assay: luminescent pyruvate kinase-luciferase coupled assay (qHTS). Format: biochemical. Conditions: for AC50: 0.1 mM ADP, 0.5 mM PEP; for Emax: maximum response (activation), read-out: Max. Res.; for activation at 57 µM: % activation at 57 μM of compound, read-out: hPK, M2 Max. Res. On the procedure:
AC50 values were determined utilizing the luminescent pyruvate kinase-luciferase coupled assay (Inglese, J. et al, Quantitative high-throughput screening: a titration-based approach that efficiently identifies biological activities in large chemical libraries. Proc. Natl. Acad. Sci. U.S.A. 2006, 103, 11473-11478).
Luminescent Pyruvate Kinase-Luciferase Coupled Assay.
Production of a luminescent signal based on the generation of ATP by pyruvate kinase was determined by using the ATP-dependent enzyme firefly luciferase. Three μL of substrate mix (at r.t.) in assay buffer (50 mM imidazole pH 7.2, 50 mM KCl, 7 mM MgCl2, 0.01% tween 20, 0.05% BSA) was dispensed into Kalypsys (San Diego, Calif., USA) white solid bottom 1,536 well microtiter plates using a bottle-valve solenoid-based dispenser (Kalypsys). The final concentrations of substrates in the assay were 0.1 mM ADP and 0.5 mM PEP. Twenty-three nL of compound in DMSO were delivered with a 1,536-pin array tool, and 1 μL of enzyme mix in assay buffer (final concentration, 0.1 nM pyruvate kinase, 50 mM imidazole pH 7.2, 0.05% BSA, 4° C.) was added. Microtiter plates were incubated at r.t. for 1 hour and 2 uL of luciferase detection mix (Kinase-Glo from Promega, Madison, Wis., USA) at 4° C. protected from light, was added and luminescence was read with a ViewLux (Perkin Elmer, Waltham, Mass., USA) using a 2 second exposure/plate (with 2× binning). The final concentration of DMSO was 0.5% and found not to affect the assay signal.
Data was normalized for AC50 values to control columns containing uninhibited enzyme (n), and AC100 inhibition (i) according the following equation: Activation (%)=[(c−n)/(n−i)]*100 where c=compound, n=DMSO neutral, i=no enzyme control. A % activity of 100% is approximately a 2-fold increase over basal assay signal (% Activation by FBP was variable but averaged 100%). Monitoring of activation was accomplished using enzyme at 3× the final concentration.
All compounds were screened using a qHTS approach, where compounds are assayed using at least seven concentrations to generate concentration-response curves for every compounds. Briefly, qHTS uses an inter-plate dilution method where the first plate contains the highest concentration of a set of compounds in DMSO, while subsequent plates contain the same compounds in the same well locations, but at successive lower concentrations. Using the protocol outlined above, the rate was calculated as a plate throughput of 18 plates/hr or approximately 7 samples/sec on the Kalypsys robotic system which means that a 7 point CRC was obtained every second on the robotic system.
(In general: In qHTS, concentration-response curves come from the screen itself.)

[1] abbreviates: Table 1, mean of three replicate experiments, read-out: hPK, M2 AC50.
[2] abbreviates: Table 1, mean of three replicate experiments.
Setting [3] is: Table 2, mean of three replicate experiments, read-out: hPK, M2 AC50.
[4] abbreviates: Table 2, mean of three replicate experiments.

Like-named read-outs stand apart in the source and are kept apart here.

Chain of hPK, M2 (P14618 whole entry): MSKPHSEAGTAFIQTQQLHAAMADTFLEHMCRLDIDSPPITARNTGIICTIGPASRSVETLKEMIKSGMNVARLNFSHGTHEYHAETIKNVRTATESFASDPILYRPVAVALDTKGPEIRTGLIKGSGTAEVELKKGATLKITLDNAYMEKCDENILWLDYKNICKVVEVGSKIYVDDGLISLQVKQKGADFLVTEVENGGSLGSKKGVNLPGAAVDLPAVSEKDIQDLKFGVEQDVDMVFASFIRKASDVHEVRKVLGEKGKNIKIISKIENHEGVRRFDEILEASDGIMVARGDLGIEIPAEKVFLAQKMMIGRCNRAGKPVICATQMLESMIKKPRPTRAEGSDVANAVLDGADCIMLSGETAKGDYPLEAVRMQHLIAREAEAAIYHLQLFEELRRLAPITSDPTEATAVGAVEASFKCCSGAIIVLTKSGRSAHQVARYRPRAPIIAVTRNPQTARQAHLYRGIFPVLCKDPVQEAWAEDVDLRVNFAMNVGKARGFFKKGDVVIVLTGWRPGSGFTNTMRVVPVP

Turning to `Cc1ccc(Cl)cc1NS(=O)(=O)c1cc2c(cc1F)NC(=O)CC2` [Compound 48, N-(5-chloro-2-methylphenyl)-7-fluoro-2-oxo-1,2,3,4-tetrahydroquinoline-6-sulfonamide], the AC50 (Table 4, read-out: AC50) amounted to 4610 nM. The Emax (Table 4) was determined as 94.6%.

With `Cc1ccc(NS(=O)(=O)c2ccc3c(c2)CCCC(=O)N3)cc1C` [Compound 6, N-(3,4-dimethylphenyl)-2-oxo-2,3,4,5-tetrahydro-1H-benzo[b]azepine-7-sulfonamide], under setting [1], the AC50 stood at 18000 nM. Besides, the activation at 57 µM under setting [2] is 66%.

`Cc1ccc(NS(=O)(=O)c2ccc3c(ccn3C)c2)cc1C` [Compound 12, N-(3,4-dimethylphenyl)-1-methyl-1H-indole-5-sulfonamide]: the concentration at half-maximal activity (AC50) under setting [1] worked out at 20000 nM. Also, the activation at 57 µM under setting [2] is 40%.

As to `O=C1CCc2cc(S(=O)(=O)Nc3ccccc3F)ccc2N1` [Compound 26, N-(2-fluorophenyl)-2-oxo-1,2,3,4-tetrahydroquinoline-6-sulfonamide], the AC50 under setting [3] was found to be 7300 nM. For the same molecule, the activation at 57 µM under setting [4] was 85%.

With `Cc1ccc(NS(=O)(=O)c2ccc3c(c2)NC(=O)CO3)cc1C` [Compound 7, N-(3,4-dimethylphenyl)-3-oxo-3,4-dihydro-2H-benzo[b][1,4]oxazine-6-sulfonamide], the concentration at half-maximal activity (AC50) under setting [1] is 20000 nM. In addition, the activation at 57 µM under setting [2] came out at 93%.

For `COc1cccc(NS(=O)(=O)c2ccc3c(c2)CCC(=O)N3)c1` [Compound 15, N-(3-methoxyphenyl)-2-oxo-1,2,3,4-tetrahydroquinoline-6-sulfonamide], the AC50 under setting [3] was 3200 nM. Also, the activation at 57 µM under setting [4] was 91%.

Regarding `Cc1ccccc1NS(=O)(=O)c1ccc2c(c1)CCC(=O)N2` [Compound 24, 2-oxo-N-o-tolyl-1,2,3,4-tetrahydroquinoline-6-sulfonamide], the AC50 under setting [3] is 3900 nM. In addition, the activation at 57 µM under setting [4] worked out at 96%.

As to `Cc1cccc(NS(=O)(=O)c2ccc3c(c2)CCC(=O)N3)c1` [Compound 14, 2-oxo-N-m-tolyl-1,2,3,4-tetrahydroquinoline-6-sulfonamide], the AC50 under setting [3] was found to be 1200 nM. In addition, under setting [4], the activation at 57 µM came out at 99%.

For `O=C1CCc2cc(S(=O)(=O)Nc3cccc(Cl)c3)ccc2N1` [Compound 13, N-(3-chlorophenyl)-2-oxo-1,2,3,4-tetrahydroquinoline-6-sulfonamide], the AC50 under setting [3] worked out at 650 nM. Moreover, the activation at 57 µM under setting [4] stood at 100%.

As for `Cc1ccc(NS(=O)(=O)c2ccc3c(c2)CCC(=O)N3)cc1F` [Compound 55, N-(3-fluoro-4-methylphenyl)-2-oxo-1,2,3,4-tetrahydroquinoline-6-sulfonamide], the AC50 (Table 4, read-out: AC50) is 460 nM. Also, the Emax (Table 4) is 131%.

For `O=C1CCc2cc(S(=O)(=O)NCc3ccccc3)ccc2N1` [Compound 30, N-benzyl-2-oxo-1,2,3,4-tetrahydroquinoline-6-sulfonamide], under setting [3], the AC50 was 14000 nM. Besides, the activation at 57 µM under setting [4] was 25%.

`Cc1ccc(NS(=O)(=O)c2cc3c(cc2N[C@@H](C)CO)NC(=O)CC3)cc1C` [Compound 68, (S)—N-(3,4-dimethylphenyl)-7-(1-hydroxypropan-2-ylamino)-2-oxo-1,2,3,4-tetrahydroquinoline-6-sulfonamide]: where the note is “Table 4, read-out: AC50”, the AC50 amounted to 90 nM. In addition, the Emax (Table 4) was determined as 131%.

In the case of `O=C1CCc2cc(S(=O)(=O)Nc3ccc(F)cc3)ccc2N1` [Compound 23, N-(4-fluorophenyl)-2-oxo-1,2,3,4-tetrahydroquinoline-6-sulfonamide], under setting [3], the AC50 was 10000 nM. Besides, under setting [4], the activation at 57 µM was 99%.

In the case of `Cc1ccc(NS(=O)(=O)c2cc3c(cc2F)NC(=O)CC3)cc1C` [Compound 31, N-(3,4-dimethylphenyl)-7-fluoro-2-oxo-1,2,3,4-tetrahydroquinoline-6-sulfonamide], the AC50 (Table 3, mean of three replicate experiments, read-out: hPK, M2 AC50) came out at 920 nM. Also, the activation at 57 µM (Table 3, mean of three replicate experiments) was determined as 115%.

Take `O=C1CCc2cc(S(=O)(=O)Nc3ccc(Cl)c(Cl)c3)ccc2N1` [Compound 44, N-(3,4-dichlorophenyl)-2-oxo-1,2,3,4-tetrahydroquinoline-6-sulfonamide]: where the note is “Table 4, read-out: AC50”, the AC50 was found to be 2590 nM. Further, the Emax (Table 4) was found to be 126%.

With `Cc1ccc(NS(=O)(=O)c2cc3c(cc2NC(C)CO)NC(=O)CC3)cc1C` (stereo not shown) [Compound 67, N-(3,4-dimethylphenyl)-7-(1-hydroxypropan-2-ylamino)-2-oxo-1,2,3,4-tetrahydroquinoline-6-sulfonamide], the AC50 (Table 4, read-out: AC50) came to 110 nM. Moreover, the Emax (Table 4) turned out to be 110%.

As to `O=C1CCc2cc(S(=O)(=O)Nc3cccc(C(F)(F)F)c3)ccc2N1` [Compound 17, 2-oxo-N-(3-(trifluoromethyl)phenyl)-1,2,3,4-tetrahydroquinoline-6-sulfonamide], the AC50 under setting [3] turned out to be 13000 nM. The activation at 57 µM under setting [4] was 96%.

As to `CC(=O)N1c2ccc(S(=O)(=O)Nc3ccc(C)c(C)c3)cc2CC1C` (stereo not shown) [Compound 47, 1-acetyl-N-(3,4-dimethylphenyl)-2-methylindoline-5-sulfonamide], under “Table 4, read-out: AC50”, the AC50 came out at 18300 nM. The Emax (Table 4) worked out at 112%.

For the molecule `CC(=O)N1CCc2cc(S(=O)(=O)Nc3ccc(C)c(C)c3)ccc21` [Compound 11, 1-acetyl-N-(3,4-dimethylphenyl)indoline-5-sulfonamide], the AC50 under setting [1] was found to be 1800 nM. Further, the activation at 57 µM under setting [2] came to 65%.

Turning to `Cc1ccc(NS(=O)(=O)c2ccc3c(c2)n(C)c(=O)n3C)cc1C` [Compound 10, N-(3,4-dimethylphenyl)-1,3-dimethyl-2-oxo-2,3-dihydro-1H-benzo[d]imidazole-5-sulfonamide], the AC50 under setting [1] was found to be 1800 nM. Under setting [2], the activation at 57 µM came to 100%.

`Cc1c(Cl)cccc1NS(=O)(=O)c1cc2c(cc1F)NC(=O)CC2` [Compound 50, N-(3-chloro-2-methylphenyl)-7-fluoro-2-oxo-1,2,3,4-tetrahydroquinoline-6-sulfonamide]: the AC50 (Table 4, read-out: AC50) is 2590 nM. Moreover, the Emax (Table 4) was determined as 118%.

As to `COc1ccccc1NS(=O)(=O)c1ccc2c(c1)CCC(=O)N2` [Compound 25, N-(2-methoxyphenyl)-2-oxo-1,2,3,4-tetrahydroquinoline-6-sulfonamide], the AC50 under setting [3] turned out to be 21000 nM. Under setting [4], the activation at 57 µM stood at 60%.

As to `Cc1ccc(NS(=O)(=O)c2ccc3c(c2)CCC(=O)N3)cc1` [Compound 21, 2-oxo-N-p-tolyl-1,2,3,4-tetrahydroquinoline-6-sulfonamide], the AC50 under setting [3] stood at 4100 nM. In addition, under setting [4], the activation at 57 µM was found to be 110%.

In the case of `C[C@@H](CO)Nc1cc2c(cc1S(=O)(=O)Nc1ccc(F)c(Cl)c1)CCC(=O)N2` [Compound 73, (S)—N-(3-chloro-4-fluorophenyl)-7-(1-hydroxypropan-2-ylamino)-2-oxo-1,2,3,4-tetrahydroquinoline-6-sulfonamide], the AC50 (Table 4, read-out: AC50) turned out to be 140 nM. For the same molecule, under “Table 4”, the Emax was determined as 95%.

Turning to `Cc1ccc(NS(=O)(=O)c2ccc3c(c2)N(C)C(=O)CO3)cc1C` [Compound 8, N-(3,4-dimethylphenyl)-4-methyl-3-oxo-3,4-dihydro-2H-benzo[b][1,4]oxazine-6-sulfonamide], the AC50 under setting [1] turned out to be 920 nM. Moreover, under setting [2], the activation at 57 µM turned out to be 120%.

For the molecule `Cc1ccc(NS(=O)(=O)c2cc3c(cc2NCCO)NC(=O)CC3)cc1C` [Compound 70, N-(3,4-dimethylphenyl)-7-(2-hydroxyethylamino)-2-oxo-1,2,3,4-tetrahydroquinoline-6-su 1 fonamide], under “Table 4, read-out: AC50”, the AC50 was found to be 90 nM. Moreover, the Emax (Table 4) turned out to be 111%.
